Laboratory results reported in article PMC7613998, “Development of selective inhibitors of phosphatidylinositol 3-kinase C2α” (Nature Chemical Biology, 2022).
Read-outs that look alike come from different tables or passages of the source.

Assays:
Test in all cases: biochemical
VPS34 complex II = target: T1, VPS34 complex II (Homo sapiens, UniProt Q8NEB9); parameters: Lipid kinase activity assay on purified class I PI3K or VPS34 complex II, 10 uM ATP
T1 construct: gene PIK3C3
Protocol: Extended Data Fig. 2 Lipid kinase inhibitor profile of PITCOIN1-3. (a–c) Selectivity profiling of PITCOIN1-3 (1 µM) with purified lipid kinases in the presence of 10 µM ATP. […] Data are presented as mean ± SD from two independent experiments. (d, e) IC50 measurements of PITCOIN1-3 against purified recombinant class I PI3K p110α/p85α (d) or purified class III PI3K VPS34 complex II (e). 10 µM ATP and 20 µM PIP3 (for p110α/p85α) or 200 µM PI (for VPS34 complex II) were used as substrates. […] Data are presented as mean ± SD from two independent experiments. Source data

DYRK1B = DYRK1B (Homo sapiens, UniProt Q9Y463); parameters: SelectScreen Z'-LYTE purified kinase panel, per cent inhibition, mean of two points; settings: (μM)=Km app
Chain of DYRK1B (Q9Y463 whole entry): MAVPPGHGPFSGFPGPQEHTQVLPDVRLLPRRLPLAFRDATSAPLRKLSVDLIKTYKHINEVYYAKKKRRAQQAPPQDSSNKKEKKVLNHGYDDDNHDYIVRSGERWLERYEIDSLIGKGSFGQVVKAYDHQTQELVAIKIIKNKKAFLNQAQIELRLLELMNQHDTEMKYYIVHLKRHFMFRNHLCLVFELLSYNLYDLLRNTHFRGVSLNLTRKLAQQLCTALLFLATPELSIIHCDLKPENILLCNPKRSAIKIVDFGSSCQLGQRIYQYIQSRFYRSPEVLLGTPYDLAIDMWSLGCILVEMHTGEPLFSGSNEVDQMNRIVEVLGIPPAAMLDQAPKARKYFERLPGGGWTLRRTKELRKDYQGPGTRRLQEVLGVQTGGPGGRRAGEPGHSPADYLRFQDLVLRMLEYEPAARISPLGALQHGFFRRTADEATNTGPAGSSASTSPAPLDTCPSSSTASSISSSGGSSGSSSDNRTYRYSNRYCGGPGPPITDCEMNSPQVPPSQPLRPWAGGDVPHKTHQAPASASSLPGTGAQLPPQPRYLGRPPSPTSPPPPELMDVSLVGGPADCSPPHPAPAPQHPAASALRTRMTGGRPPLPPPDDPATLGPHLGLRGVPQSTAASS

[1] = target: PIK3CA/PIK3R3 (p110 alpha/p55 gamma) (Homo sapiens, UniProt P42336); parameters: SelectScreen Adapta purified lipid kinase panel, 1 uM compound, 10 uM ATP, per cent inhibition; settings: ATP=10; Technology=Adapta; 10 uM ATP
Protocol: (§1) As PI3KC2α is related to other PI3Ks and to PI3K-like protein kinases such as mTOR, the selectivity of PITCOINs was determined in a panel of biochemical assays. […] Finally, the high specificity of PITCOINs for PI3KC2α was verified by Kinobead profiling experiments. In this approach, the ability of PITCOINs to compete the affinity capture of cellular kinases on immobilized nonselective kinase inhibitors (Kinobeads) is analyzed by mass spectrometry (MS)[31]. […] Four nonkinase weak off-targets were globally found for the three inhibitors with only FECH[32] common to the three PITCOINs (Supplementary Dataset).  Extended Data Fig. 2 Lipid kinase inhibitor profile of PITCOIN1-3. (a–c) Selectivity profiling of PITCOIN1-3 (1 µM) with purified lipid kinases in the presence of 10 µM ATP. […] Data are presented as mean ± SD from two independent experiments. (d, e) IC50 measurements of PITCOIN1-3 against purified recombinant class I PI3K p110α/p85α (d) or purified class III PI3K VPS34 complex II (e). 10 µM ATP and 20 µM PIP3 (for p110α/p85α) or 200 µM PI (for VPS34 complex II) were used as substrates. […] Data are presented as mean ± SD from two independent experiments. Source data

PI4K2A (PI4K2 alpha) = PI4K2A (PI4K2 alpha) (Homo sapiens, UniProt Q9BTU6); parameters: SelectScreen Adapta purified lipid kinase panel, 1 uM compound, 10 uM ATP, per cent inhibition; settings: ATP=10; Technology=Adapta; 10 uM ATP
Chain of PI4K2A (PI4K2 alpha) (Q9BTU6 whole entry): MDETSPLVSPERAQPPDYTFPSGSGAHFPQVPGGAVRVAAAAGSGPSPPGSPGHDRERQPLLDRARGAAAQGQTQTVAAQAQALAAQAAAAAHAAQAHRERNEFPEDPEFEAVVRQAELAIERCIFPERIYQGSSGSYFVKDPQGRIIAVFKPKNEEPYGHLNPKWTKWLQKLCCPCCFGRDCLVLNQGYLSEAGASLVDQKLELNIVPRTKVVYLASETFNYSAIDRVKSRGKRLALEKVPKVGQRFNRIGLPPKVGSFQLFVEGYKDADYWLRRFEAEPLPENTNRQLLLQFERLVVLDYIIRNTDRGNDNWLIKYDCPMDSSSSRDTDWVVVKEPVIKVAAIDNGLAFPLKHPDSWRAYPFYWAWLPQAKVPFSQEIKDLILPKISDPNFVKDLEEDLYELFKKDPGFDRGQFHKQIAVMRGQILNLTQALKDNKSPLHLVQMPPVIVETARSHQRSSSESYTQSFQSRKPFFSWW
Protocol: as §1

PIK3C2A (PI3K-C2 alpha) = PIK3C2A (PI3K-C2 alpha) (Homo sapiens, UniProt O00443); parameters: SelectScreen Adapta purified lipid kinase panel, 1 uM compound, 10 uM ATP, per cent inhibition; settings: ATP=10; Technology=Adapta; 10 uM ATP; 1 µM; inhibitor
Protocol: as §1

[2] = target: PIK3CA E542K/PIK3R1 (p110 alpha E542K/p85 alpha) (Homo sapiens, UniProt P42336, E542K); parameters: SelectScreen Adapta purified lipid kinase panel, 1 uM compound, 10 uM ATP, per cent inhibition; settings: ATP=10; Technology=Adapta; 10 uM ATP
Protocol: as §1

[3] = target: PIK3CB/PIK3R2 (p110 beta/p85 beta) (Homo sapiens, UniProt P42338); parameters: SelectScreen Adapta purified lipid kinase panel, 1 uM compound, 10 uM ATP, per cent inhibition; settings: ATP=10; Technology=Adapta; 10 uM ATP
Chain of PIK3CB/PIK3R2 (p110 beta/p85 beta) (P42338 whole entry): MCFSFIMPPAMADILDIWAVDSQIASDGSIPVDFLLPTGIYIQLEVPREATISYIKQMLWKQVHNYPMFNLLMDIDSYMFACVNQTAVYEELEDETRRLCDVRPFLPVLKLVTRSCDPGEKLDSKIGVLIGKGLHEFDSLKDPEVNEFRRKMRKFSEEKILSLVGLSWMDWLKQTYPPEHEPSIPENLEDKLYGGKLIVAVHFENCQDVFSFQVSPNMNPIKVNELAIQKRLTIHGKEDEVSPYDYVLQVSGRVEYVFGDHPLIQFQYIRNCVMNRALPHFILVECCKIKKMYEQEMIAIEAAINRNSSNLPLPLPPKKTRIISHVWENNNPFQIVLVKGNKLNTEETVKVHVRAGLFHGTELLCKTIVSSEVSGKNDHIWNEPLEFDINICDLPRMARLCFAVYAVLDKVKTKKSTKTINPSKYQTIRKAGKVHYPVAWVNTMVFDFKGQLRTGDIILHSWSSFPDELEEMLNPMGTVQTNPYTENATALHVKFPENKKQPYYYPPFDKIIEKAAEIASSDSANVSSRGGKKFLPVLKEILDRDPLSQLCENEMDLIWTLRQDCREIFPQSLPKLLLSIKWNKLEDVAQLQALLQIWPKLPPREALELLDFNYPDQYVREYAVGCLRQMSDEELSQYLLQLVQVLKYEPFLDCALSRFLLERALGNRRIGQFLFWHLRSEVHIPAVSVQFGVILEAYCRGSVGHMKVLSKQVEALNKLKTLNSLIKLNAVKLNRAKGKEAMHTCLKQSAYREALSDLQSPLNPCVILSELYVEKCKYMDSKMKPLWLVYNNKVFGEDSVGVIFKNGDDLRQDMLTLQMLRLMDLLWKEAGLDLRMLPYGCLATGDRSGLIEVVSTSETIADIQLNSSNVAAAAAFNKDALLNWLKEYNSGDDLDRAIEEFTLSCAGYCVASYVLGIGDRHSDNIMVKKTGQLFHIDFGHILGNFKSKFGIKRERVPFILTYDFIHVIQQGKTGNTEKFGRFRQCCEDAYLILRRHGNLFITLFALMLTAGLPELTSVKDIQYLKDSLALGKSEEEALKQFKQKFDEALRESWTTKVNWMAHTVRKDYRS
Chain of PIK3CB/PIK3R2 (p110 beta/p85 beta) (O00459 whole entry partner): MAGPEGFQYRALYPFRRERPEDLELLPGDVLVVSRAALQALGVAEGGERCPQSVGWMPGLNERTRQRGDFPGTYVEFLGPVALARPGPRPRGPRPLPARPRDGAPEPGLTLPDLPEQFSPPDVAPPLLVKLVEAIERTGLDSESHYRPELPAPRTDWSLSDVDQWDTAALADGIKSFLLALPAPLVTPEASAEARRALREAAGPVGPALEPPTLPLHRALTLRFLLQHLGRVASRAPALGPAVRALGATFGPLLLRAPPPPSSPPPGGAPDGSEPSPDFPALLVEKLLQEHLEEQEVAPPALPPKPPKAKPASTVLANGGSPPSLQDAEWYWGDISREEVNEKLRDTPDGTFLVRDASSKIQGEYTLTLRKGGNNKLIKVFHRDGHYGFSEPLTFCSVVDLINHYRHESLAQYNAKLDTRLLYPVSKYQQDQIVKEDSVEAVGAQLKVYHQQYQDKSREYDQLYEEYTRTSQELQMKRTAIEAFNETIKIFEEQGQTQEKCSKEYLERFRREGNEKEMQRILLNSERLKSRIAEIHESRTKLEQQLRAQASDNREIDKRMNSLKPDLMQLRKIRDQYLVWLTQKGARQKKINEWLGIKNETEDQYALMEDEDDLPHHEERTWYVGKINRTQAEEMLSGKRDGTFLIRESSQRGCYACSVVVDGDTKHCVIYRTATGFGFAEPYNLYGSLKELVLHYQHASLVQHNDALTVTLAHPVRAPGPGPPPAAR
Protocol: as §1

PIP5K1B = PIP5K1B (Homo sapiens, UniProt O14986); parameters: SelectScreen Adapta purified lipid kinase panel, 1 uM compound, 10 uM ATP, per cent inhibition; settings: ATP=10; Technology=Adapta; 10 uM ATP
Protocol: as §1

PIK3CG (p110 gamma) = PIK3CG (p110 gamma) (Homo sapiens, UniProt P48736); parameters: SelectScreen Adapta purified lipid kinase panel, 1 uM compound, 10 uM ATP, per cent inhibition; settings: ATP=10; Technology=Adapta; 10 uM ATP
Chain of PIK3CG (p110 gamma) (P48736 whole entry): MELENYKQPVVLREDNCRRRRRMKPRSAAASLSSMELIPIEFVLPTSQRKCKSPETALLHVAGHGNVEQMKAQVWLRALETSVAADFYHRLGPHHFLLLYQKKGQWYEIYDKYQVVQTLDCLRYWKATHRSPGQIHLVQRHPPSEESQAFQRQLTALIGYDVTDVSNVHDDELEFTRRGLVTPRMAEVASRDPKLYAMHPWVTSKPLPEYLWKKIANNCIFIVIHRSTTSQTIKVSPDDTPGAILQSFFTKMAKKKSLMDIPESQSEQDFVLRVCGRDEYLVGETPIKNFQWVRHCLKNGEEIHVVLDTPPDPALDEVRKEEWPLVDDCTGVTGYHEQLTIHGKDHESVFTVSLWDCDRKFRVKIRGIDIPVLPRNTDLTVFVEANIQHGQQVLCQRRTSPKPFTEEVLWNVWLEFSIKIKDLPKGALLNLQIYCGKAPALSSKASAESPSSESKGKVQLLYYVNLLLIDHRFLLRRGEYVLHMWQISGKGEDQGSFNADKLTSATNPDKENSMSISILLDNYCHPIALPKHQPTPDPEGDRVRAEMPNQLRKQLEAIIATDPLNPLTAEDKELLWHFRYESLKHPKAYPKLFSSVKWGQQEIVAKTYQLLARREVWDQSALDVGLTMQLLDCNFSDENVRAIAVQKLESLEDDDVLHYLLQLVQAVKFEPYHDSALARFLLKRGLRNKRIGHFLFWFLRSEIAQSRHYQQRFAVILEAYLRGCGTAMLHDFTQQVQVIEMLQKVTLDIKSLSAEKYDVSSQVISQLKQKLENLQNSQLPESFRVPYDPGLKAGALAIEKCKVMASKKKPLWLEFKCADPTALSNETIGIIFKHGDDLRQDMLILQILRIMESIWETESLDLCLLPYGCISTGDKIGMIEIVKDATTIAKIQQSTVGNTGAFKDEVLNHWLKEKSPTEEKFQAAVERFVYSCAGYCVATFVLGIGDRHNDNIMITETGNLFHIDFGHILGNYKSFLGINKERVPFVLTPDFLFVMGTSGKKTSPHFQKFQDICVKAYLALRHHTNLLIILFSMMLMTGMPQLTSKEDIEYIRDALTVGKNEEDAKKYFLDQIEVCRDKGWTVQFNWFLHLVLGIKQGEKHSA
Protocol: as §1

PIP5K1C = PIP5K1C (Homo sapiens, UniProt O60331); parameters: SelectScreen Adapta purified lipid kinase panel, 1 uM compound, 10 uM ATP, per cent inhibition; settings: ATP=10; Technology=Adapta; 10 uM ATP
Chain of PIP5K1C (O60331 whole entry): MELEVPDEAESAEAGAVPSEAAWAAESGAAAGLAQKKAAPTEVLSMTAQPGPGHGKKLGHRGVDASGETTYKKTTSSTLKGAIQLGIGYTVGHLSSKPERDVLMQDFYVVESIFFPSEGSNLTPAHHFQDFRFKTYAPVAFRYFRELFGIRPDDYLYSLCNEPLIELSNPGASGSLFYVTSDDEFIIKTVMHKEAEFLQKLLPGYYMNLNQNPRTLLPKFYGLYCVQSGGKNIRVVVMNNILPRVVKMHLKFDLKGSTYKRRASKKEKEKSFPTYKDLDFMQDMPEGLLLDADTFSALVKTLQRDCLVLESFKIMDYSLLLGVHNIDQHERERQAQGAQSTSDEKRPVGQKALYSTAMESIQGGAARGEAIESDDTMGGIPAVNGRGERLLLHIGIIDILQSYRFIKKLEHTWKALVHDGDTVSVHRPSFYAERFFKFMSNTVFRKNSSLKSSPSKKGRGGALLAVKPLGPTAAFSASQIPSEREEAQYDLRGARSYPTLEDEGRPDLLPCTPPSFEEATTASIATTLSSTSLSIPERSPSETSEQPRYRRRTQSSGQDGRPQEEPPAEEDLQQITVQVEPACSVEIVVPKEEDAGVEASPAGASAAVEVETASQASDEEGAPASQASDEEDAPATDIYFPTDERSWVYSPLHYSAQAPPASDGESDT
Protocol: as §1

STK17B (DRAK2) = target: T2, STK17B (DRAK2) (Homo sapiens, UniProt O94768); parameters: SelectScreen LanthaScreen kinase binding assay, per cent tracer displacement, mean of two points; settings: tracer displacement
T2 sequence (O94768 1-372): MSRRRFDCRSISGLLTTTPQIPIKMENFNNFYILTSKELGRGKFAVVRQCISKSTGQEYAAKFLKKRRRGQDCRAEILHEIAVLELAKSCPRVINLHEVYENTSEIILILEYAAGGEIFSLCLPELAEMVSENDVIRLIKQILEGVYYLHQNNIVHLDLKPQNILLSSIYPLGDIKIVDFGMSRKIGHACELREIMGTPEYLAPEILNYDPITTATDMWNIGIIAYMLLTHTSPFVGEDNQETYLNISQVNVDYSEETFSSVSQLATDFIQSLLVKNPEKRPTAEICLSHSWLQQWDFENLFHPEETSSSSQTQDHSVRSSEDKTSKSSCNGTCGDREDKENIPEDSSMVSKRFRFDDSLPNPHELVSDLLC

RAF1 (cRAF) Y340D Y341D = RAF1 (cRAF) Y340D Y341D (Homo sapiens, UniProt P04049, Y340D/Y341D); parameters: SelectScreen LanthaScreen kinase binding assay, per cent tracer displacement, mean of two points; settings: tracer displacement
PI3KC2γ = target: T3, PI3KC2γ (Homo sapiens, UniProt O75747); parameters: ADP-Glo lipid kinase assay with liver PI substrate, luminescence
T3 construct: gene PIK3C2G

| inhibition at 1 µM (DYRK1B) | inhibition at 3 µM (DYRK1B) | inhibition at 10 µM (DYRK1B) | inhibition at 1 µM [1] | inhibition at 1 µM (PI4K2A (PI4K2 alpha)) | % Inhibition Avg (PIK3C2A (PI3K-C2 alpha)) | inhibition at 1 µM [2] | inhibition at 1 µM [3] | inhibition at 1 µM (PIP5K1B) | inhibition at 1 µM (PIK3CG (p110 gamma)) | inhibition at 1 µM (PIP5K1C) | inhibition at 1 µM (STK17B (DRAK2)) | inhibition at 3 µM (STK17B (DRAK2)) | inhibition at 10 µM (STK17B (DRAK2)) | inhibition at 1 µM (RAF1 (cRAF) Y340D Y341D) | inhibition at 3 µM (RAF1 (cRAF) Y340D Y341D) | inhibition at 10 µM (RAF1 (cRAF) Y340D Y341D) | Compound | also measured |
| --- | --- | --- | --- | --- | --- | --- | --- | --- | --- | --- | --- | --- | --- | --- | --- | --- | --- | --- |
| -3.1% | -1.26% | -0.107% | -6% | 8% | 88% | 5% | 3% | 5% | 20% | 15% | -6.01% | 2.55% | 4.06% | -5.58% | -2.49% | -0.882% | O=C(CSc1nc2nccnc2c(=O)n1CCc1ccccc1)Nc1nccs1 [compound 1, PITCOIN1] | IC50 (VPS34 complex II; read-out: PITCOIN1 (IC50)): > 10 µM |
| – | – | – | -10% | 4% | 87% | 9% | -2% | -1% | 16% | -8% | – | – | – | – | – | – | O=C(CSc1nc2nccnc2c(=O)n1CCc1ccccc1)Nc1nc(-c2cccc(O)c2)cs1 [compound 2, PITCOIN2] | IC50 (VPS34 complex II; read-out: PITCOIN2 (IC50)): > 10 µM; IC50 (PI3KC2γ; read-out: PITCOIN2 (IC50)): > 10 µM |
| -3% | -3.02% | -2.65% | 5% | 1% | 83% | 14% | 7% | – | 9% | -4% | -7.55% | -5.4% | 11.1% | -1.02% | 3.96% | 3.33% | CS(=O)(=O)Nc1cccc(-c2csc(NC(=O)CSc3nc4nccnc4c(=O)n3CCc3ccccc3)n2)c1 [compound 3, PITCOIN3] | IC50 (VPS34 complex II; read-out: PITCOIN3 (IC50)): > 10 µM; IC50 (PI3KC2γ; read-out: PITCOIN3 (IC50)): > 10 µM |
